Measured values: paper PMC11721672, “Design, Structure–Activity Relationships, and Computational Modeling Studies of a Series of α-Helix Biased, Ultra-Short Glucagon-like Peptide-1 Receptor Agonists” (Molecules, 2024)
Where two headings read alike, the source gives them in different places. Square brackets hold non-standard residues; d marks the D form. Peptide text beside a SMILES is read from it. Bip = N[C@@H](Cc1ccc(-c2ccccc2)cc1)C(=O)O; αMePhe(2-F) = C[C@](N)(Cc1ccccc1F)C(=O)O; αMeF = C[C@](N)(Cc1ccccc1)C(=O)O; Aib = CC(C)(N)C(=O)O

Target: T1, hGLP1 receptor (Homo sapiens, UniProt P43220)
T1 construct: expressed in transfected cells; host or cells: HEK (human embryonic kidney) cells co-expressing hGLP1 receptor and CRE-Luciferase
Assay: GLP-1 receptor agonism assay (HTRF cAMP, HEK cells co-expressing hGLP1 receptor and CRE-Luciferase)
Format: cell-based
Settings: for Emax: HEK293, Table 6 potency profile; for decreased potency by Aib substitution: Aib-scanning, versus parent analog RXL-101; for dpEC50 (contribution of Cα-methylation): dpEC50 = pEC50 (Aib) − pEC50 (Ala) − 0.97, Aib peptide versus the Ala peptide of the same line
Description: Human embryonic kidney cells (HEK) co-expressing the hGLP1 receptor and CRE-Luciferase construct were used to determine agonist potency in this assay. The cells were thawed briefly at 37 °C, transferred to a sterile tube, and re-suspended in complete media at 37 °C. Cells were centrifuged at 1000 rpm for 5 min and collected; the cells were then re-suspended in an assay buffer consisting of Dulbecco’s phosphate-buffered saline (DPBS, GIBCO) with 500 μM of the phosphodiesterase inhibitor 3-isobutyl-1-methylxanthine (IBMX). The assay medium had 0% serum albumin, as specified in Table 1, Table 2, Table 3 and Table 4. The optimal cell density was determined to be 1000 cells/well. Cells were added to wells in 384-well plates containing appropriate pre-prepared dilutions of compounds (test peptides or reference compound exendin-4), sealed, and incubated with CO2 for 30 min. Test peptide solutions were diluted from 10 mM stock solutions to be used in two separate runs (performed in triplicate) from a maximal concentration of 1.0 μM, with 11 concentrations tested for each peptide using serial 1:3 dilution from this maximal concentration. […] The agonist assay was a homogeneous time-resolved fluorescence (HTRF) assay (Cisbio). Following incubation of the cells for 30 min with test or reference peptides, 5 μL of the cAMP acceptor cAMP-d2, prepared previously as a working solution from frozen stock (1:20 dilution), was added to each well of the assay plate along with 5 μL of anti-cAMP antibody-cryptate working solution (diluted 1:20 from frozen stock). The wells were incubated for 1 h at room temperature, and fluorescence was then read at 665 and 615 nm with an Envision reader with a TRF laser. Data were saved and analyzed using Prism software (GraphPad). Concentration–response analysis was performed using 4-parameter logistic fits of the resulting data, and EC50 values were obtained for each test and reference compound.

[1] = Table 1, Phe6 modifications, 0% HSA, average of two independent experiments in triplicate (RXL-3039 tested once), read-out: cAMP EC50

T1 sequence (P43220 24-463): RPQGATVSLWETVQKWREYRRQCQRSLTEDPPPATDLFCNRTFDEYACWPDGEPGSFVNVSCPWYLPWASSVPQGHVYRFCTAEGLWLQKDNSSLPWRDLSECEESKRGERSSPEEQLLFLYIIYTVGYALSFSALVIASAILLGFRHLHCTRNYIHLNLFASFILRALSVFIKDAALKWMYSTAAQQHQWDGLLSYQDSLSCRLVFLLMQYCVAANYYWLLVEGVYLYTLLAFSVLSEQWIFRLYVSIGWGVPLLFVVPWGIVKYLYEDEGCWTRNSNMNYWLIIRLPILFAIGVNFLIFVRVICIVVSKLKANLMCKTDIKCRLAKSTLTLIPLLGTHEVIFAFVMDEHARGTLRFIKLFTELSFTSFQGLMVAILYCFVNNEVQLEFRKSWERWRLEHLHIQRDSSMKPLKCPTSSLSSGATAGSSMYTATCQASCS

Cc1ccccc1C[C@H](NC(=O)[C@@H](NC(=O)CNC(=O)[C@H](CCC(=O)O)NC(=O)C(C)(C)NC(=O)[C@@H](N)Cc1c[nH]cn1)[C@@H](C)O)C(=O)N[C@H](C(=O)N[C@@H](CO)C(=O)N[C@@H](CC(=O)O)C(=O)N[C@@H](Cc1ccc(-c2ccccc2)cc1)C(=O)N[C@@H](Cc1ccc(-c2ccccc2)cc1)C(N)=O)[C@@H](C)O [RXL-3013, His-Aib-Glu-Gly-Thr-Phe(2-CH3)-Thr-Ser-Asp-Bip-Bip-NH2]
Emax: 98.6% | EC50 [1]: 2.1 nM

C[C@@H](O)[C@H](NC(=O)CNC(=O)[C@H](CCC(=O)O)NC(=O)C(C)(C)NC(=O)[C@@H](N)Cc1c[nH]cn1)C(=O)N[C@@H](Cc1ccccc1[N+](=O)[O-])C(=O)N[C@H](C(=O)N[C@@H](CO)C(=O)N[C@@H](CC(=O)O)C(=O)N[C@@H](Cc1ccc(-c2ccccc2)cc1)C(=O)N[C@@H](Cc1ccc(-c2ccccc2)cc1)C(N)=O)[C@@H](C)O [RXL-3014, His-Aib-Glu-Gly-Thr-Phe(2-NO2)-Thr-Ser-Asp-Bip-Bip-NH2]
Emax: 104% | EC50 [1]: 1.1 nM

C[C@@H](O)[C@H](NC(=O)CNC(=O)[C@H](CCC(=O)O)NC(=O)C(C)(C)NC(=O)[C@@H](N)Cc1c[nH]cn1)C(=O)N[C@@H](Cc1ccccc1C#N)C(=O)N[C@H](C(=O)N[C@@H](CO)C(=O)N[C@@H](CC(=O)O)C(=O)N[C@@H](Cc1ccc(-c2ccccc2)cc1)C(=O)N[C@@H](Cc1ccc(-c2ccccc2)cc1)C(N)=O)[C@@H](C)O [RXL-3015, His-Aib-Glu-Gly-Thr-Phe(2-CN)-Thr-Ser-Asp-Bip-Bip-NH2]
Emax: 101% | EC50 [1]: 7.7 nM

C[C@@H](O)[C@H](NC(=O)CNC(=O)[C@H](CCC(=O)O)NC(=O)C(C)(C)NC(=O)[C@@H](N)Cc1c[nH]cn1)C(=O)N[C@@H](Cc1cccc(C(F)(F)F)c1)C(=O)N[C@H](C(=O)N[C@@H](CO)C(=O)N[C@@H](CC(=O)O)C(=O)N[C@@H](Cc1ccc(-c2ccccc2)cc1)C(=O)N[C@@H](Cc1ccc(-c2ccccc2)cc1)C(N)=O)[C@@H](C)O [RXL-3016, His-Aib-Glu-Gly-Thr-Phe(3-CF3)-Thr-Ser-Asp-Bip-Bip-NH2]
Emax: 109% | EC50 [1]: 13.9 nM

C[C@@H](O)[C@H](NC(=O)CNC(=O)[C@H](CCC(=O)O)NC(=O)C(C)(C)NC(=O)[C@@H](N)Cc1c[nH]cn1)C(=O)N[C@@H](Cc1cc(F)c(F)c(F)c1)C(=O)N[C@H](C(=O)N[C@@H](CO)C(=O)N[C@@H](CC(=O)O)C(=O)N[C@@H](Cc1ccc(-c2ccccc2)cc1)C(=O)N[C@@H](Cc1ccc(-c2ccccc2)cc1)C(N)=O)[C@@H](C)O [RXL-3017, His-Aib-Glu-Gly-Thr-Phe(3,4,5-F)-Thr-Ser-Asp-Bip-Bip-NH2]
Emax: 113% | EC50 [1]: 7.2 nM

C[C@@H](O)[C@H](NC(=O)CNC(=O)[C@H](CCC(=O)O)NC(=O)C(C)(C)NC(=O)[C@@H](N)Cc1c[nH]cn1)C(=O)N[C@@H](Cc1c(F)c(F)c(F)c(F)c1F)C(=O)N[C@H](C(=O)N[C@@H](CO)C(=O)N[C@@H](CC(=O)O)C(=O)N[C@@H](Cc1ccc(-c2ccccc2)cc1)C(=O)N[C@@H](Cc1ccc(-c2ccccc2)cc1)C(N)=O)[C@@H](C)O [RXL-3018, His-Aib-Glu-Gly-Thr-Phe(2,3,4,5,6-F)-Thr-Ser-Asp-Bip-Bip-NH2]
Emax: 102% | EC50 [1]: 0.3 nM | GLP-1R agonist potency relative to RXL-3000 (versus RXL-3000): threefold less potent

C[C@@H](O)[C@H](NC(=O)CNC(=O)[C@H](CCC(=O)O)NC(=O)C(C)(C)NC(=O)[C@@H](N)Cc1c[nH]cn1)C(=O)N[C@@H](CCc1ccccc1)C(=O)N[C@H](C(=O)N[C@@H](CO)C(=O)N[C@@H](CC(=O)O)C(=O)N[C@@H](Cc1ccc(-c2ccccc2)cc1)C(=O)N[C@@H](Cc1ccc(-c2ccccc2)cc1)C(N)=O)[C@@H](C)O [RXL-3019, His-Aib-Glu-Gly-Thr-hPhe-Thr-Ser-Asp-Bip-Bip-NH2]
Emax: 110% | EC50 [1]: 16 nM

C[C@@H](O)[C@H](NC(=O)CNC(=O)[C@H](CCC(=O)O)NC(=O)C(C)(C)NC(=O)[C@@H](N)Cc1c[nH]cn1)C(=O)N[C@@](C)(Cc1ccccc1)C(=O)N[C@H](C(=O)N[C@@H](CO)C(=O)N[C@@H](CC(=O)O)C(=O)N[C@@H](Cc1ccc(-c2ccccc2)cc1)C(=O)N[C@@H](Cc1ccc(-c2ccccc2)cc1)C(N)=O)[C@@H](C)O [RXL-3020, His-Aib-Glu-Gly-Thr-α-Me-Phe-Thr-Ser-Asp-Bip-Bip-NH2] (H-H[Aib]EGT[αMeF]TSD[Bip][Bip]-NH2)
Emax: 108%

C[C@@H](O)[C@H](NC(=O)CNC(=O)[C@H](CCC(=O)O)NC(=O)C(C)(C)NC(=O)[C@@H](N)Cc1c[nH]cn1)C(=O)N[C@@H](Cc1ccc(O)cc1)C(=O)N[C@H](C(=O)N[C@@H](CO)C(=O)N[C@@H](CC(=O)O)C(=O)N[C@@H](Cc1ccc(-c2ccccc2)cc1)C(=O)N[C@@H](Cc1ccc(-c2ccccc2)cc1)C(N)=O)[C@@H](C)O [RXL-3021, His-Aib-Glu-Gly-Thr-Tyr-Thr-Ser-Asp-Bip-Bip-NH2] (H-H[Aib]EGTYTSD[Bip][Bip]-NH2)
Emax: 100% | EC50 [1]: 3 nM

C[C@@H](O)[C@H](NC(=O)CNC(=O)[C@H](CCC(=O)O)NC(=O)C(C)(C)NC(=O)[C@@H](N)Cc1c[nH]cn1)C(=O)N[C@H](Cc1ccccc1)C(=O)N[C@H](C(=O)N[C@@H](CO)C(=O)N[C@@H](CC(=O)O)C(=O)N[C@@H](Cc1ccc(-c2ccccc2)cc1)C(=O)N[C@@H](Cc1ccc(-c2ccccc2)cc1)C(N)=O)[C@@H](C)O [RXL-3022, His-Aib-Glu-Gly-Thr-D-Phe-Thr-Ser-Asp-Bip-Bip-NH2]
Emax: 101% | EC50 [1]: 23.2 nM

C[C@@H](O)[C@H](NC(=O)CNC(=O)[C@H](CCC(=O)O)NC(=O)C(C)(C)NC(=O)[C@@H](N)Cc1c[nH]cn1)C(=O)N[C@@H](Cc1c[nH]c2ccccc12)C(=O)N[C@H](C(=O)N[C@@H](CO)C(=O)N[C@@H](CC(=O)O)C(=O)N[C@@H](Cc1ccc(-c2ccccc2)cc1)C(=O)N[C@@H](Cc1ccc(-c2ccccc2)cc1)C(N)=O)[C@@H](C)O [RXL-3023, His-Aib-Glu-Gly-Thr-Trp-Thr-Ser-Asp-Bip-Bip-NH2] (H-H[Aib]EGTWTSD[Bip][Bip]-NH2)
Emax: 106% | EC50 [1]: 13.8 nM

C[C@@H](O)[C@H](NC(=O)CNC(=O)[C@H](CCC(=O)O)NC(=O)C(C)(C)NC(=O)[C@@H](N)Cc1c[nH]cn1)C(=O)N[C@@H](Cc1ccc(-c2ccccc2)cc1)C(=O)N[C@H](C(=O)N[C@@H](CO)C(=O)N[C@@H](CC(=O)O)C(=O)N[C@@H](Cc1ccc(-c2ccccc2)cc1)C(=O)N[C@@H](Cc1ccc(-c2ccccc2)cc1)C(N)=O)[C@@H](C)O [RXL-3024, His-Aib-Glu-Gly-Thr-Bip-Thr-Ser-Asp-Bip-Bip-NH2] (H-H[Aib]EGT[Bip]TSD[Bip][Bip]-NH2)
Emax: 102% | EC50 [1]: 10.8 nM

C[C@@H](O)[C@H](NC(=O)CNC(=O)[C@H](CCC(=O)O)NC(=O)C(C)(C)NC(=O)[C@@H](N)Cc1c[nH]cn1)C(=O)NC(C)(C)C(=O)N[C@H](C(=O)N[C@@H](CO)C(=O)N[C@@H](CC(=O)O)C(=O)N[C@@H](Cc1ccc(-c2ccccc2)cc1)C(=O)N[C@@H](Cc1ccc(-c2ccccc2)cc1)C(N)=O)[C@@H](C)O [RXL-3028, His-Aib-Glu-Gly-Thr-Aib-Thr-Ser-Asp-Bip-Bip-NH2] (H-H[Aib]EGT[Aib]TSD[Bip][Bip]-NH2)
rescue of potency by Aib versus Ala substitution (Aib analog versus Ala analog at the same position): more than 10 fold | decreased potency by Aib substitution: ≥ 100 fold | Emax: 76.1% | EC50 (Table 3, Aib-scanning, 0% HSA, >1000 nM = out of range, read-out: cAMP EC50): 161 nM | EC50 (Table 4, Aib-scan peptides, 0% HSA, read-out: pEC50 (converted)): 105 nM | dpEC50 (contribution of Cα-methylation) (0% HSA): 0.46

C[C@@H](O)[C@H](NC(=O)CNC(=O)[C@H](CCC(=O)O)NC(=O)C(C)(C)NC(=O)C(C)(C)N)C(=O)N[C@@](C)(Cc1ccccc1F)C(=O)N[C@H](C(=O)N[C@@H](CO)C(=O)N[C@@H](CC(=O)O)C(=O)N[C@@H](Cc1ccc(-c2ccccc2)cc1)C(=O)N[C@@H](Cc1ccc(-c2ccccc2)cc1)C(N)=O)[C@@H](C)O [RXL-3030, Aib-Aib-Glu-Gly-Thr-α-Me-Phe(2-F)-Thr-Ser-Asp-Bip-Bip-NH2] (H-[Aib][Aib]EGT[αMePhe(2-F)]TSD[Bip][Bip]-NH2)
decreased potency by Aib substitution: < 10 fold | Emax: 112% | dpEC50 (contribution of Cα-methylation) (0% HSA): −0.26

C[C@@H](O)[C@H](NC(=O)CNC(=O)C(C)(C)NC(=O)C(C)(C)NC(=O)[C@@H](N)Cc1c[nH]cn1)C(=O)N[C@@](C)(Cc1ccccc1F)C(=O)N[C@H](C(=O)N[C@@H](CO)C(=O)N[C@@H](CC(=O)O)C(=O)N[C@@H](Cc1ccc(-c2ccccc2)cc1)C(=O)N[C@@H](Cc1ccc(-c2ccccc2)cc1)C(N)=O)[C@@H](C)O [RXL-3031, His-Aib-Aib-Gly-Thr-α-Me-Phe(2-F)-Thr-Ser-Asp-Bip-Bip-NH2] (H-H[Aib][Aib]GT[αMePhe(2-F)]TSD[Bip][Bip]-NH2)
Emax: 121% | pEC50 (Table 4, Aib-scan peptides, 0% HSA): 8.31 | dpEC50 (contribution of Cα-methylation) (0% HSA): −1.13
